Results published in patent US7138361B2, “Herbicidal heterocycles” (E. I. du Pont de Nemours and Company, priority 2000, dated 2006).

Legend:
Test in all cases: Test C preemergence
Format in all cases: in vivo
[1] = test system: Nightshade; details: Rate 500 g/ha, visual evaluation after 12 to 14 days
[2] = test system: giant foxtail (Setaria faberii)
Summary of the method: (§1)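 Herbicidal effect is a visual 0–100 score (100 = complete control) assigned versus untreated plants, 12 to 14 days after spraying in the greenhouse. Test compounds were applied in a non-phytotoxic, surfactant-containing solvent.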

[3] = test system: yellow nutsedge (Cyperus esculentus)
Summary of the method: as §1

[4] = test system: bermudagrass (Cynodon dactylon)
Summary of the method: as §1

[5] = test system: corn (Zea mays)
Summary of the method: as §1

[6] = test system: soybean (Glycine max)
Summary of the method: as §1

[7] = test system: cocklebur (Xanthium strumarium)
Summary of the method: as §1

[8] = test system: kochia (Kochia scoparia)
Summary of the method: as §1

[9] = test system: Surinam grass (Brachiaria decumbens)
Summary of the method: as §1

[10] = test system: johnsongrass (Sorghum halepense); details: preemergence
Summary of the method: as §1

[11] = test system: velvetleaf (Abutilon theophrasti)
Summary of the method: as §1

[12] = test system: Nightshade
[13] = test system: goosegrass (Eleusine indica)
Summary of the method: as §1

[14] = test system: common ragweed (Ambrosia elatior)
Summary of the method: as §1

[15] = test system: lambsquarters (Chenopodium album)
Summary of the method: as §1

[16] = test system: pigweed (Amaranthus retroflexus)
Summary of the method: as §1

[17] = test system: crabgrass (Digitaria sanguinalis)
Summary of the method: as §1

[18] = test system: morningglory (Ipomoea hederacea)
Summary of the method: as §1

[19] = test system: woolly cupgrass (Eriochloa villosa)
Summary of the method: as §1

[20] = test system: Sunflower; details: Rate 125 g/ha; scale 0 to 100, 0 no effect, 100 complete control
[21] = Rate 125 g/ha, scale 0 to 100, 0 no effect, 100 complete control
[22] = preemergence, Rate 62 g/ha, scale 0 to 100
[23] = preemergence, Rate 500 g/ha, visual evaluation after 12 to 14 days
[24] = preemergence, Rate 250 g/ha, scale 0 to 100, 0 no effect, 100 complete control
[25] = Rate 250 g/ha, scale 0 to 100, 0 no effect, 100 complete control

CC(C)(C)c1ccn(C2CCN(c3cccc(SC(F)(F)F)c3)C2=O)n1 (stereo not drawn) [Compound 93]
60: Plant response rating (0 to 100), Foxtail, Giant [2, 23]
100: Plant response rating (0 to 100 where 0 is no effect and 100 is complete control), Bermudagrass [4, 23] | Plant response rating, Bermudagrass [4, 24] | Plant response rating, Goosegrass [13, 21] | Plant response rating (0 to 100), Goosegrass [13, 23] | Plant response rating, Goosegrass [13, 24] | Plant response rating (0 to 100), Lambsquarters [15, 23] | Plant response rating, Crabgrass [17, 21] | Plant response rating (0 to 100), Crabgrass [17, 23] | Plant response rating, Crabgrass [17, 24]
20: Plant response rating, Foxtail, Giant [2, 21] | Plant response rating, Foxtail, Giant [2, 24] | Plant response rating (0 to 100), Soybean [6, 23] | Plant response rating (0 to 100), Cocklebur [7, 23] | Plant response rating (0 to 100), Velvetleaf [11, 23] | Plant response rating, Goosegrass [13, 22] | Plant response rating, Pigweed [16, 21] | Plant response rating, Pigweed [16, 24] | Plant response rating (0 to 100), Morningglory [18, 23] | Plant response rating, Cupgrass, Woolly [19, 21]
0: Plant response rating, Foxtail, Giant [2, 22] | Plant response rating, Nutsedge [3, 21] | Plant response rating, Nutsedge [3, 22] | Plant response rating (0 to 100), Nutsedge [3, 23] | Plant response rating, Nutsedge [3, 24] | Plant response rating, Bermudagrass [4, 22] | Plant response rating, Corn [5, 21] | Plant response rating, Corn [5, 22] | Plant response rating, Corn [5, 24] | Plant response rating, Soybean [6, 21] | Plant response rating, Soybean [6, 22] | Plant response rating, Soybean [6, 24] | Plant response rating, Cocklebur [7, 21] | Plant response rating, Cocklebur [7, 22] | Plant response rating, Cocklebur [7, 24] | Plant response rating, Kochia [8, 21] | Plant response rating, Kochia [8, 22] | Plant response rating, Surinam grass [9, 22] | Plant response rating, Johnsongrass ([10]; Rate 62 g/ha, scale 0 to 100) | Plant response rating, Velvetleaf [11, 21] | Plant response rating, Velvetleaf [11, 22] | Plant response rating, Velvetleaf [11, 24] | Plant response rating, Nightshade ([12]; Rate 62 g/ha, scale 0 to 100) | Plant response rating, Nightshade [12, 21] | Plant response rating, Nightshade [12, 25] | Plant response rating, Ragweed, Common [14, 21] | Plant response rating, Ragweed, Common [14, 22] | Plant response rating (0 to 100), Ragweed, Common [14, 23] | Plant response rating, Ragweed, Common [14, 24] | Plant response rating, Lambsquarters [15, 22] | Plant response rating, Pigweed [16, 22] | Plant response rating, Morningglory [18, 21] | Plant response rating, Morningglory [18, 22] | Plant response rating, Morningglory [18, 24] | Plant response rating, Cupgrass, Woolly [19, 22] | Plant response rating, Sunflower [20]
10: Plant response rating (0 to 100), Nightshade [1] | Plant response rating, Surinam grass [9, 21] | Plant response rating (0 to 100), Johnsongrass ([10]; Rate 500 g/ha, visual evaluation after 12 to 14 days) | Plant response rating, Johnsongrass [10, 25]
90: Plant response rating, Bermudagrass [4, 21] | Plant response rating, Lambsquarters [15, 24]
70: Plant response rating (0 to 100), Surinam grass [9, 23] | Plant response rating, Lambsquarters [15, 21] | Plant response rating, Cupgrass, Woolly [19, 24]
80: Plant response rating (0 to 100), Kochia [8, 23] | Plant response rating (0 to 100), Pigweed [16, 23] | Plant response rating, Crabgrass [17, 22] | Plant response rating (0 to 100), Cupgrass, Woolly [19, 23]
30: Plant response rating (0 to 100), Corn [5, 23] | Plant response rating, Kochia [8, 24] | Plant response rating, Surinam grass [9, 24]
